According to patent US20060270641A1, “Method for chemoprevention of prostate cancer” (priority 2005, published 2006):
One block for each compound: values may come before it.

Legend:
[1] = system: prostate glands of TRAMP mice; assay: SERMs in prevention of prostate cancer in the TRAMP model (wholemount and histology at 20 weeks); assay type: in vivo, mouse; details: sacrificed at 20 weeks; for Animals with prostate cancer / animals evaluated (column has no head): placebo 5/5; for Percent of animals with prostate cancer (column has no head): placebo 100%
Experimental: Experimental design: Chemopreventive treatment of mice is initiated post-natal at 30 days. Three groups of 50 hybrid TRAMP male mice each are treated with either Tamoxifen citrate, Raloxifene (SERMs), or Faslodex (pure antiestrogen ICI 182,780). The drugs are obtained as customized sustained-release pellets (Innovative Research of America, Sarasota, Fla.) and delivered as subcutaneous implants (see preliminary data). Control animals receive placebo implant with no pharmacological activity. Animals (n=10) are sacrificed at periodic intervals, 10, 15, 20, 25 and 30 weeks age, and the efficacy of the treatment leading to either absence of tumor formation or reduction in tumor size, if present, is assessed by comparison with placebo control animals. Blood is collected to evaluate changes in serum androgens and estrogens with each treatment Prostatic tissues is saved: a) for morphometric studies; b) for histologic studies (the tissue will be fixed in 10% buffered formalin, processed and paraffin embedded); c) for molecular studies (the tissues is frozen in liquid nitrogen and stored at −70° C.). Necropsies and survival data is also recorded.
The results of the experiment reveal the relative chemopreventive efficacy of the various antiestrogens in the delay or prevention of prostate cancer in the TRAMP model. The morphological studies indicate the gross changes, if any, in the development of the prostate size and ductal pattern as a result of each treatment. Paraffinized tissue sections are stained using standard H&E techniques for histological changes such as PIN that will be assessed to monitor the appearance of precancerous lesions as a precursor of prostatic adenocarcinoma. Serum estradiol and total testosterone levels are measured for each age interval to assess any changes in these hormones and whether or not they correlate to changes in PIN. The peptide growth factor levels of TGF, TGF 1, TGF 3, and bFGF are quantitative in prostate samples taken at each interval. Corresponding peptide growth factor receptors are also assessed for EGFR and TGF RI and RII.

[2] = system: human stromal fibroblast cells; assay: TGFβ synthesis in human stromal fibroblast cells; assay type: cell-based
[3] = system: TRAMP mouse ventral prostate; assay: Histological examination (H&E) of TRAMP prostate tissue; assay type: in vivo
Experimental: Tumors from the placebo and high toremifene-treated groups taken at the time of palpation were evaluated histologically. FIG. 2A is an H&E section of the ventral prostate of a 17-week-old normal adult mouse.

LNCaP tumors = assay: Regression of established LNCaP tumors in athymic nude mice; assay type: in vivo
Experimental: Materials and Methods: One million LNCaP cells in Matrigel were subcutaneously injected into each flank of athymic nude mice. A total of 40 mice were injected. After approximately 3-4 weeks, visible tumors developed. After the tumor size was recorded in two dimensions, the mice were divided into placebo and treatment groups based on equivalent tumor burden. A single pellet (placebo versus toremifene 35 mg) was subcutaneously implanted between the scapulae of each mouse. Weekly measurements of the tumor size were recorded. Tumor volume was calculated (tumor volume=[…], where L=tumor length and W=width). The tumor volume at the time of pellet implantation served as the point of reference for future comparison of that tumor's size variation. The weekly variations of each tumor volume were recorded as percent differentiation from the original measurement at pellet implantation.

prostate of TRAMP mice = assay: TRAMP confirmation study: wholemount, histology, large T antigen immunohistochemistry; assay type: in vivo, mouse
Experimental: The present study focuses on the histological and molecular changes associated with development of prostate tumor in control animals and the mechanism of toremifene chemopreventive action with TRAMP animals which are bred, screened and treated with sustained-release drug pellets. At predetermined times, groups of 5 animals were sacrificed and their prostates were removed for analysis. The prostate glands were evaluated for the presence of tumor by histology, wholemount dissections, and large T antigen immunohistochemistry. To date, the Placebo and the Toremifene treatments have been completed for the 7, 10, 15 and 20 week time-points, and the results are described below.
Results: Prostatic wholemounts for 7,10,15, and 20 weeks for the various groups have been completed. […] By 20 weeks, there is a striking delay in tumor occurrence in the Toremifene treated group up to 35 weeks FIG. 4). […] For histological evaluation, tissue samples were fixed, processed and paraffin embedded. Sections ([…]) were cut and stained by routine H&E method.

[4] = system: ventral prostate of TRAMP mice; assay: Chemopreventive activity in TRAMP transgenic mice, absence of palpable tumor formation; assay type: in vivo, mouse; details: for Week at which tumor formation in the ventral prostate was noted: n=12, placebo week 17; for Animals still tumor-free: all control animals had tumors
Text: The study of prostate cancer chemoprevention has been hindered by the lack of appropriate animal models. The recent development of the transgenic adenocarcinoma mouse prostate (TRAMP) model enables the study of chemoprevention. In the TRAMP model, which is described in Greenberg et al., A Prostate cancer in a transgenic mouse, Proc. Natl Acad. Sci. USA, 1995, Vol. 92, pages 3439-3443, the PB-SV40 large T antigen (PB-Tag) transgene is expressed specifically in the epithelial cells of the murine prostate. As a result, this model has several advantages over currently existing models: 1) mice develop progressive forms of prostatic epithelial hyperplasia as early as 10 weeks and invasive adenocarcinoma around 18 weeks of age; 2) the metastatic spread of prostate cancer pattern mimics human prostate cancer with the common sites of metastases being lymph node, lung, kidney, adrenal gland, and bone; 3) the development as well as the progression of prostate cancer can be followed within a relatively short period of 10-30 weeks; 4) the tumors arise with prostate cancer transgene prior to the onset of clinical prostate cancer to directly test treatment with chemopreventive agents that may alter prostate carcinogenesis.
A study was undertaken to test the efficacy of chemopreventive agents in TRAMP transgenic animals (PBTag×FVBwt)(provided by Dr. Norman Greenberg, Baylor College of Medicine, Tex.). […] The TRAMP transgenic male litters were screened for the Large Tag transgene, and the positive males were used in the study. The antiestrogen toremifene, which was to be tested for its possible chemopreventive effects, was incorporated in customized pellets (Innovative Research of America, Sarasota, Fla.), and chemopreventive treatment of mice was initiated postnatally at 30 days (average mouse weight 14 g) Four groups of 10-12 animals each received subcutaneous implantations of 90 day-release toremifene-containing pellets. The diffusible drug dosage, adjusted for growth related changes in weight, was designed to deliver either a low dose (6 mg/kg) or a high dose (30 mg/kg) of toremifene. Control animals (n=IO) received placebo implants The efficacy of the treatment was measured by the absence of palpable tumor formation. The murine prostate tumors were harvested and evaluated by molecular and histological techniques

PIN = details: 60 mg daily for 4 months

Compound: CC/C(=C(\c1ccccc1)c1ccc(OCCN(C)C)cc1)c1ccccc1 [Tamoxifen]
Animals with prostate cancer / animals evaluated (column has no head) ([1]; 20 mg/kg/d): 2/9
Percent of animals with prostate cancer (column has no head) ([1]; 20 mg/kg/d): 22%

Compound: O=C(c1ccc(OCCN2CCCCC2)cc1)c1c(-c2ccc(O)cc2)sc2cc(O)ccc12 [Raloxifene, 6-hydroxy-2-(4-hydroxyphenyl)-3-[4-(2-piperidinoethoxy)benzoyl]benzo[b]thiophene]
Animals with prostate cancer / animals evaluated (column has no head) ([1]; 20 mg/kg/d): 3/10
Percent of animals with prostate cancer (column has no head) ([1]; 20 mg/kg/d): 30%

Quality of life, including potency and libido (PIN): unchanged
Serum PSA, serum free testosterone, serum total testosterone and serum estradiol (PIN): remained in the normal ranges
Compound: CN(C)CCOc1ccc(/C(=C(/CCCl)c2ccccc2)c2ccccc2)cc1 [Toremifene]
TGFβ synthesis [2]: significantly induce
Mitotic index relative to placebo-treated animal ([3]; toremifene-treated 30-week-old TRAMP mouse vs placebo-treated 16-week-old): much lower
Prostate histology (glandular architecture) ([3]; toremifene-treated 30-week-old TRAMP mouse, H&E, FIG. 2C): retains much of the normal glandular architecture
Mean tumor volume after treatment (LNCaP tumors; toremifene 35 mg pellet, 1.90 mm^3 at pellet implantation, placebo increased to 2.33): 1.68 mm^3
Mean serum PSA level (LNCaP tumors; toremifene 35 mg pellet, not statistically significant vs placebo (p=0.755)): 2.80 ng/mL
Change of mean tumor volume (LNCaP tumors; toremifene 35 mg pellet, vs volume at pellet implantation): −0.22 mm^3
% Change in volume relative to day 0 of treatment (LNCaP tumors; week 3, toremifene 35 mg sc pellet, N=11): −34.58%
% Change in volume relative to day 0 of treatment (LNCaP tumors; week 4, toremifene 35 mg sc pellet, N=7): −61.01%
% Change in volume relative to day 0 of treatment (LNCaP tumors; week 5, toremifene 35 mg sc pellet, N=7): −74.51%
% Change in volume relative to day 0 of treatment (LNCaP tumors; week 6, toremifene 35 mg sc pellet, N=5): −61.72%
Delay in the occurrence of prostate cancer (wholemount analysis) (prostate of TRAMP mice; FIG. 3, placebo tumors by 15-20 weeks of age): up to 20 weeks
Delay in tumor occurrence (prostate of TRAMP mice; FIG. 4): up to 35 weeks
Effect on ductal development and tissue differentiation (histology) (prostate of TRAMP mice; H&E sections): inhibited the ductal development and tissue differentiation
Animals with prostate cancer / animals evaluated (column has no head) ([1]; 20 mg/kg/d): 1/7
Percent of animals with prostate cancer (column has no head) ([1]; 20 mg/kg/d): 14.2%
Delay of time to palpable tumors in 25% of the animals ([4]; high and low toremifene groups vs placebo): 7-8 weeks
Time at which tumors were palpable in 25% of the animals ([4]; high and low toremifene groups, placebo week 23): 30-31 weeks
Week at which tumor formation in the ventral prostate was noted ([4]; high dose (30 mg/kg) 90 day-release sc pellet): 19 week
Week at which tumor formation in the ventral prostate was noted ([4]; low dose (6 mg/kg) 90 day-release sc pellet): 28 week
Increase of latency period for development of cancer in the ventral prostate ([4]; vs placebo): up to 11 weeks
Animals still tumor-free ([4]; week 33, high dose (30 mg/kg)): 60%
Animals still tumor-free ([4]; week 33, low dose (6 mg/kg)): 72%
Acute or chronic toxicities (PIN): no acute or chronic toxicities
Complete response (PIN; 16 patients completed): 75%
Patients who had prostate cancer but the amount of PIN was reduced (PIN; of 16 patients): 3 patients
Patients with stable disease (PIN epithelium with atrophic and degenerative changes) (PIN; of 16 patients): 1 patient
Patients with regression of PIN to benign or atrophic prostate tissue (PIN; rebiopsy (8 biopsies)): 12 out of 16

Compound: C[C@]12CC[C@@H]3c4ccc(O)cc4C[C@@H](CCCCCCCCC[S+]([O-])CCCC(F)(F)C(F)(F)F)[C@H]3[C@@H]1CC[C@@H]2O (some centres unmarked) [Faslodex]
Animals with prostate cancer / animals evaluated (column has no head) ([1]; 10 mg/kg/d): 8/11
Percent of animals with prostate cancer (column has no head) ([1]; 10 mg/kg/d): 72%
